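Test compounds were applied to cells in 96-well plates for 48 hours at 5 doses. GI50 is the concentration that inhibits growth by half.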 The source made the active and inactive calls. No stated cut-off is given here; in the data, active = GI50 up to about 1.1 µM and inactive = higher.
What was measured:
Assay in all cases: inhibition of tumour cell growth, NCI panel, 48 h
[1] = system: OVCAR-3
[2] = system: M14
[3] = system: SK-MEL-28
[4] = system: NCI-H522
[5] = system: SR
[6] = system: KM12
[7] = system: SK-OV-3
[8] = system: HCT-116
[9] = system: UACC-257
[10] = system: HCT-15
[11] = system: NCI-H23
[12] = system: XF498
[13] = system: SK-MEL-2
[14] = system: CAKI-1
[15] = system: MOLT-4
[16] = system: ACHN
[17] = system: K562
[18] = system: HOP-62
[19] = system: SNB-75
[20] = system: LOX IMVI
[21] = system: A549
[22] = system: HT-29
[23] = system: A498
[24] = system: UACC-62
[25] = system: SF-268
[26] = system: NCI-H460
[27] = system: SK-MEL-5
[28] = system: SN12C
[29] = system: UO-31
[30] = system: SF-539
[31] = system: SW-620
[32] = system: M19-MEL
[33] = system: DMS-114
[34] = system: COLO 205
[35] = system: HL-60
[36] = system: U-251
[37] = system: OVCAR-8
[38] = system: OVCAR-4
[39] = system: CCRF-CEM
[40] = system: 786-0
[41] = system: KM-20L2
[42] = system: DMS-273
[43] = system: OVCAR-5
[44] = system: TK-10
[45] = system: HCC 2998
[46] = system: IGROV-1
[47] = system: NCI-H226
[48] = system: HOP-18
[49] = system: RXF 393
[50] = system: LXFL 529
[51] = system: SNB-19
[52] = system: EKVX
[53] = system: Malme-3M
[54] = system: DLD-1
[55] = system: SNB-78
[56] = system: SF-295
[57] = system: HOP-92
[58] = system: T47D
[59] = system: MDA-N
[60] = system: MCF7
[61] = system: MDA-MB-435
[62] = system: DU-145
[63] = system: Hs-578T
[64] = system: RPMI-8226
[65] = system: PC-3
[66] = system: BT-549
[67] = system: MDA-MB-231

CCOC(=O)c1cccnc1C(OC(C)=O)OC(C)=O
GI50 [1]: > 100 µM (inactive)
GI50 [2]: > 100 µM (inactive)
GI50 [3]: > 100 µM (inactive)
GI50 [4]: > 100 µM (inactive)
GI50 [5]: > 100 µM (inactive)
GI50 [6]: > 100 µM (inactive)
GI50 [7]: > 100 µM (inactive)
GI50 [8]: > 100 µM (inactive)
GI50 [9]: > 100 µM (inactive)
GI50 [10]: > 100 µM
GI50 [11]: > 100 µM (inactive)
GI50 [12]: > 100 µM (inactive)
GI50 [13]: > 100 µM (inactive)
GI50 [14]: > 100 µM (inactive)
GI50 [15]: > 100 µM (inactive)
GI50 [16]: 74.8 µM (inactive)
GI50 [17]: > 100 µM (inactive)
GI50 [18]: > 100 µM (inactive)
GI50 [19]: > 100 µM (inactive)
GI50 [20]: 70 µM (inactive)
GI50 [21]: > 100 µM (inactive)
GI50 [22]: > 100 µM (inactive)
GI50 [23]: > 100 µM (inactive)
GI50 [24]: > 100 µM (inactive)
GI50 [25]: > 100 µM (inactive)
GI50 [26]: > 100 µM (inactive)
GI50 [27]: > 100 µM (inactive)
GI50 [28]: > 100 µM (inactive)
GI50 [29]: > 100 µM (inactive)
GI50 [30]: > 100 µM (inactive)
GI50 [31]: > 100 µM (inactive)
GI50 [32]: > 100 µM (inactive)
GI50 [33]: > 100 µM (inactive)
GI50 [34]: > 100 µM (inactive)
GI50 [35]: 49.9 µM (inactive)
GI50 [36]: > 100 µM (inactive)
GI50 [37]: > 100 µM (inactive)
GI50 [38]: > 100 µM (inactive)
GI50 [39]: > 100 µM (inactive)
GI50 [40]: > 100 µM (inactive)
GI50 [41]: > 100 µM (inactive)
GI50 [42]: > 100 µM (inactive)
GI50 [43]: > 100 µM (inactive)
GI50 [44]: > 100 µM (inactive)
GI50 [45]: > 100 µM (inactive)
GI50 [46]: > 100 µM (inactive)
GI50 [47]: > 100 µM (inactive)
GI50 [48]: > 100 µM (inactive)
GI50 [49]: > 100 µM (inactive)
GI50 [50]: > 100 µM (inactive)
GI50 [51]: > 100 µM (inactive)
GI50 [52]: > 100 µM (inactive)
GI50 [53]: > 100 µM (inactive)
GI50 [54]: > 100 µM (inactive)
GI50 [55]: > 100 µM (inactive)
GI50 [56]: 83.4 µM (inactive)
GI50 [57]: > 100 µM (inactive)

COc1c2c(nc3ccccc13)-c1cc3c(c(=O)n1C2)COC(=O)C3(O)CC(=O)N1CCOCC1 (centres undefined)
GI50 [1]: 19.4 µM (inactive)
GI50 [2]: 4.04 µM (inactive)
GI50 [3]: 17 µM (inactive)
GI50 [4]: 1.9 µM (inactive)
GI50 [5]: 0.23 µM (active)
GI50 [58]: 3.63 µM (inactive)
GI50 [6]: 17.1 µM (inactive)
GI50 [59]: 19.5 µM (inactive)
GI50 [7]: 9.48 µM (inactive)
GI50 [8]: 6.55 µM (inactive)
GI50 [9]: 19 µM (inactive)
GI50 [10]: 41.4 µM
GI50 [11]: 1.75 µM (inactive)
GI50 [12]: 7.96 µM (inactive)
GI50 [13]: 26.8 µM (inactive)
GI50 [14]: 3.79 µM (inactive)
GI50 [15]: 0.29 µM (active)
GI50 [60]: 1.06 µM (active)
GI50 [16]: 3.13 µM (inactive)
GI50 [61]: 18.7 µM (inactive)
GI50 [17]: 4.85 µM (inactive)
GI50 [18]: 1 µM (active)
GI50 [62]: 3.3 µM (inactive)
GI50 [19]: 1.35 µM (inactive)
GI50 [20]: 1.36 µM (inactive)
GI50 [63]: 12.6 µM (inactive)
GI50 [21]: 10.5 µM (inactive)
GI50 [22]: 17.3 µM (inactive)
GI50 [23]: 13.2 µM (inactive)
GI50 [24]: 0.76 µM (active)
GI50 [25]: 0.532 µM (active)
GI50 [26]: 1.17 µM (inactive)
GI50 [27]: 4.09 µM (inactive)
GI50 [28]: 1.59 µM (inactive)
GI50 [29]: 7.16 µM (inactive)
GI50 [30]: 0.964 µM (active)
GI50 [31]: 5.4 µM (inactive)
GI50 [32]: 5.58 µM (inactive)
GI50 [33]: 0.664 µM (active)
GI50 [34]: 27.8 µM (inactive)
GI50 [35]: 2.72 µM (inactive)
GI50 [36]: 0.528 µM (active)
GI50 [37]: 3.58 µM (inactive)
GI50 [38]: 46.1 µM (inactive)
GI50 [64]: 6.43 µM (inactive)
GI50 [39]: 0.164 µM (active)
GI50 [65]: 21.1 µM (inactive)
GI50 [40]: 2.07 µM (inactive)
GI50 [41]: 15.4 µM (inactive)
GI50 [42]: 1.11 µM (active)
GI50 [43]: 11.4 µM (inactive)
GI50 [44]: 75 µM (inactive)
GI50 [66]: 5.62 µM (inactive)
GI50 [45]: 18.2 µM (inactive)
GI50 [46]: 44.1 µM (inactive)
GI50 [47]: 6 µM (inactive)
GI50 [48]: 18 µM (inactive)
GI50 [49]: 6.01 µM (inactive)
GI50 [50]: 13.9 µM (inactive)
GI50 [67]: 69.7 µM (inactive)
GI50 [51]: 1.27 µM (inactive)
GI50 [52]: 43.2 µM (inactive)
GI50 [53]: 16.3 µM (inactive)
GI50 [54]: 40.4 µM (inactive)
GI50 [55]: 32.4 µM (inactive)
GI50 [56]: 3.59 µM (inactive)
GI50 [57]: 9.25 µM (inactive)

Source: ChEMBL document CHEMBL1201862, “PubChem BioAssay data set” (2004)
